Data: patent US20050227994A1, “Decomposition inhibitor for extracellular matrix of cartilage” (Shionogi & Co., Ltd., priority 2002, published 2005)
Read-outs that look alike come from different tables or passages of the source.

Biological target: T1, MMP-13 (Homo sapiens, UniProt P45452)
T1 construct: catalytic domain (^104Tyr˜^267Gly) was amplified with RT-PCR; His-tag; enterokinase digestion-site; made in house
Assay: Assay for inhibitory activities on MMP-13
Type: biochemical
Method: In regard to MMP-13, mRNA was prepared from carcinoma cell SW1353 derived from human cartilage stimulate by IL-1, TNF and catalytic domain (^[…]) was amplified with RT-PCR. This was cloned in Escherichia. coli expression vector […] inserted with His-tag sequence and enterokinase digestion-site, induced and expressed by IPTG (Isopropyl-β-D-thiogalactopyranoside) and expressed in a insoluble fraction. Isolation of MMP-13 from an insoluble fraction was carried out by dissolving in modifier (6M urea) by a usual method and purification with metal chelate chromatography (Ni […] Sepharose). […] The enzymatic activity on MMP was analyzed by the method described in “C. Graham Knight, Frances Willenbrock and Gillian Murphy: A novel coumarin-labelled peptide for sensitive continuous assays of the matrix metalloproteinases: […] The substrate: MOCAc-[…] was purchased from Peptide Institute, Inc., Osaka, Japan.

[1] = catalytic domain, substrate MOCAc-Pro-Leu-Gly-Leu-A2Pr(DNP)-Ala-Arg-NH2, read-out: MMP-13 (IC50μM)

IC50 [1] | Compound | IC50
0.036 µM | O=C(O)[C@@H](Cc1c[nH]c2ccccc12)NS(=O)(=O)c1ccc(-c2ccc(F)cc2)cc1 [Compound E-27] | 
0.012 µM | C[C@@H](NS(=O)(=O)c1ccc(-c2ccc(-c3ccc4ccccc4c3)cc2)cc1)C(=O)O [Compound E-28] | 
 | O=C(O)[C@@H](Cc1ccccc1)NS(=O)(=O)c1ccc(-c2ccc(C#Cc3ccc4ccccc4c3)cc2)cc1 [Compound E-29] | 0.00992 µM
0.0026 µM | CSc1ccc(-c2ccc(S(=O)(=O)NC(Cc3ccccc3)C(=O)O)cc2)cc1 (stereo not shown) [Compound E-30] | 
0.53 µM | COc1ccc(-c2ccc(S(=O)(=O)NC(C(=O)O)C(C)C)s2)cc1 (stereo not shown) [Compound F-2] | 
0.007 µM | CSCC[C@@H](NS(=O)(=O)c1ccc(-c2ccc(SC)cc2)s1)C(=O)O [Compound F-3] | 
0.0094 µM | CSc1ccc(-c2ccc(S(=O)(=O)NC(CC(C)C)C(=O)O)s2)cc1 (stereo not shown) [Compound F-4] | 
0.0183 µM | CCOc1ccc(-c2ccc(S(=O)(=O)NC(CC(C)C)C(=O)O)s2)cc1 (stereo not shown) [Compound F-5] | 
0.0376 µM | COc1ccc(-c2ccc(S(=O)(=O)N[C@H](CCSC)C(=O)O)s2)cc1 [Compound F-6] | 
0.043 µM | O=C(O)[C@H](Cc1c[nH]c2ccccc12)NS(=O)(=O)c1ccc(-c2ccc(N3CCCC3)cc2)s1 [Compound F-7] | 
0.0036 µM | COc1ccc(-c2ccc(S(=O)(=O)N[C@H](Cc3c[nH]c4ccccc34)C(=O)O)s2)cc1 [Compound F-9] | 
0.21 µM | Cc1ccc(-c2ccc(S(=O)(=O)N[C@H](Cc3c[nH]c4ccccc34)C(=O)O)s2)cc1 [Compound F-10] | 
0.00047 µM | CN(C)c1ccc(-c2ccc(S(=O)(=O)N[C@H](Cc3c[nH]c4ccccc34)C(=O)O)s2)cc1 [Compound F-11] | 
0.0318 µM | CNc1ccc(-c2ccc(S(=O)(=O)N[C@H](Cc3ccccc3)C(=O)O)s2)cc1 [Compound F-12] | 
0.033 µM | O=C(O)CNS(=O)(=O)c1ccc(-c2ccc(N3CCCC3)cc2)s1 [Compound F-13] | 
0.0104 µM | O=C(O)[C@@H](Cc1ccccc1)NS(=O)(=O)c1ccc(-c2ccc(-n3cccc3)cc2)s1 [Compound F-14] | 

IC50 [1] | Compound | IC50
0.023 µM | C[C@@H](NS(=O)(=O)c1ccc(-c2ccc(-n3cccc3)cc2)s1)C(=O)O [Compound F-15] | 
0.25 µM | CC(C)C[C@@H](NS(=O)(=O)c1ccc(-c2ccc(N3CCCCC3)cc2)s1)C(=O)O [Compound F-16] | 
0.0037 µM | O=C(O)[C@H](NS(=O)(=O)c1ccc(-c2ccc(N3CCCC3)cc2)s1)c1ccc(O)cc1 [Compound F-17] | 
0.032 µM | CC(C)[C@H](NS(=O)(=O)c1ccc(-c2ccc(N3CCCC3)cc2)s1)C(=O)O [Compound F-18] | 
0.63 µM | Cc1ccc(-c2ccc(S(=O)(=O)N[C@@H](Cc3c[nH]c4ccccc34)C(=O)O)s2)cc1 [Compound F-19] | 
0.811 µM | Cc1ccc(-c2ccc(S(=O)(=O)NC(C(=O)O)C(C)C)s2)cc1 (stereo not shown) [Compound F-20] | 
1.26 µM | CNc1ccc(-c2ccc(S(=O)(=O)NC(C(=O)O)C(C)C)s2)cc1 (stereo not shown) [Compound F-21] | 
0.854 µM | CNc1ccc(-c2ccc(S(=O)(=O)N[C@@H](Cc3ccccc3)C(=O)O)s2)cc1 [Compound F-22] | 
0.0831 µM | CSc1ccc(-c2ccc(S(=O)(=O)NC(Cc3ccccc3)C(=O)O)s2)cc1 (stereo not shown) [Compound F-24] | 
0.106 µM | CSCC[C@H](NS(=O)(=O)c1ccc(-c2ccc(C(C)=O)cc2)s1)C(=O)O [Compound F-25] | 
0.0101 µM | C=Cc1ccc(-c2ccc(S(=O)(=O)N[C@@H](C(=O)O)C(C)C)s2)cc1 [Compound F-26] | 
0.046 µM | CC(=O)Oc1ccc(C#Cc2ccc(S(=O)(=O)N[C@H](Cc3c[nH]c4ccccc34)C(=O)O)cc2)cc1 [Compound G-1] | 
0.015 µM | C#Cc1ccc(C#Cc2ccc(S(=O)(=O)N[C@H](Cc3c[nH]c4ccccc34)C(=O)O)cc2)cc1 [Compound G-2] | 
> 10 µM | CC(C)[C@@H](NS(=O)(=O)c1ccc(C#Cc2ccc(O)cc2)cc1)C(=O)O [Compound G-3] | 
> 10 µM | Cc1ccc(C#Cc2ccc(S(=O)(=O)N[C@H](Cc3ccccc3)C(=O)O)cc2[N+](=O)[O-])cc1 [Compound G-4] | 
